The record followed here is patent publication US8809001B2, “High throughput assays for inhibitors and activators of PAQR receptors” (University of Florida Research Foundation, Inc., priority 2007, dated 2014).

The term EC50 denotes the midpoint of the concentration-response curve.

Like-named read-outs stand apart in the source and are kept apart here.

For test [1], the target named is T1, mPRα (Homo sapiens, UniProt Q86WK9).
T1 construct: Full length and truncated mPRγ and mPRα were expressed in wild type cells grown in 2% galactose from the pGREG536 vector; expressed in transfected cells; host or cells: Saccharomyces cerevisiae (BY4742 wild type; also gpa mutants), GAL1-driven plasmids (TPI1 promoter in pJK90)
T1 sequence (Q86WK9 1-346): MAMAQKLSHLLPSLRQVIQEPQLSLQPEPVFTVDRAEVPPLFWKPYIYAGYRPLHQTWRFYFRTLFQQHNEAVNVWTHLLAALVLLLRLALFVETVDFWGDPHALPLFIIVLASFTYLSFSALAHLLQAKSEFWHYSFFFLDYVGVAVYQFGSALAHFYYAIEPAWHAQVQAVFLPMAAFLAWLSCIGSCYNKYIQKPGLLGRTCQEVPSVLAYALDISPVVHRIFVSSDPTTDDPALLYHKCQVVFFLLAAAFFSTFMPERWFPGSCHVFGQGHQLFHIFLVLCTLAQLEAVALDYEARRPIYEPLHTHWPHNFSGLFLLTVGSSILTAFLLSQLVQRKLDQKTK
Nature of the test: cell-based. The conditions noted are these: for agonist activity on mPRα (in words): FET3-lacZ, steroids up to 10 μM; for activation of mPRα, alterations at the 17 and 21 positions of the pregnane ring (in words): further analysis of mPRα (pRS316 plasmid, 2% galactose per FIG. 7C). An excerpt: Plasmids and primers. Human PAQRs were cloned into various vectors by PCR from commercially/publically available cDNAs. […] The OST4 open reading frame in pJK90 was replaced with the PAQR6 and mPRα open reading frames by gap repair. Primers for all cloning reactions are listed herein. Proteins expressed in pYES260 have an N-terminal 6×-histidine tag followed by a TEV protease cleavage site. Proteins expressed in pGREG536 have an N-terminal 7×-HA tag. Proteins expressed in the pRS316 vector are untagged. The pYES260, pRS316 and pGREG536 vectors allow for galactose-inducible expression via the GAL1 promoter. […] A pRS316-based plasmid containing the STE2 gene under the control of the GAL1 promoter (Feng et al., 2000) was kindly provided by Dr. Nicholas G. Davis (Wayne State University).
Assays and growth conditions. Strains were maintained using standard protocol and grown in synthetic defined (SD) media with the appropriate amino acids to match the auxotrophies of the individual strains. […] In brief, overnights of cells grown in SD-glucose media were re-inoculated into iron-deficient LIM to induce the expression of FET3. […] All ligands were added to the growth medium upon re-inoculation into LIM. For experiments in which steroids were added as ligands, steroids were added from ethanol stocks and “untreated” controls are actually treated with an equal volume of ethanol to control for vehicle effects. […] All experiments were performed at least three times and a representative experiment is shown. EC50 values were obtained using the web-based BioDataFit software using sigmoidal curve-fitting. (web site changbioscience.com/stat/ec50.html)

The target in test [2] is T2, mPRγ (Homo sapiens, UniProt Q9NXK6).
T2 construct: Full length and truncated mPRγ and mPRα were expressed in wild type cells grown in 2% galactose from the pGREG536 vector; expressed in transfected cells; host or cells: Saccharomyces cerevisiae (BY4742 wild type; also gpa mutants), GAL1-driven plasmids
T2 sequence (Q9NXK6 1-330): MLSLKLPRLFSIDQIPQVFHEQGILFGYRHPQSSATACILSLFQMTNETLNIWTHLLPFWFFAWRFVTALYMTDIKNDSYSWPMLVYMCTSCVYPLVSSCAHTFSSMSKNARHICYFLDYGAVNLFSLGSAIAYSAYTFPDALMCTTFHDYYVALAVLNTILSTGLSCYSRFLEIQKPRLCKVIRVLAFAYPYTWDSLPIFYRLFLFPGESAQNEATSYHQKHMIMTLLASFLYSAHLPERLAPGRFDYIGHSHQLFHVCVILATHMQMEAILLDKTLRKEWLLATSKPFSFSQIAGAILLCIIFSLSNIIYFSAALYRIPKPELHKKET
Nature of the test: FET3-lacZ reporter repression in yeast expressing mPRγ. The format is cell-based. The conditions noted are these: for agonist activity on mPRγ (in words): FET3-lacZ, steroids up to 10 μM. An excerpt:
Plasmids and primers. Human PAQRs were cloned into various vectors by PCR from commercially/publically available cDNAs. PAQRs were cloned into the pYES260 (Melcher, 2000), pRS316 (Liu et al., 1992) or pGREG536 (Jansen et al., 2005) expression vectors using gap repair. The pJK90 plasmid containing a Dual Topology Reporter (DTR)-tagged OST4 gene driven by the constitutive TPI1 promoter was kindly provided by Dr. Gunnar von Heijne (Stockholm University) (Kim et al., 2003). The OST4 open reading frame in pJK90 was replaced with the PAQR6 and mPRα open reading frames by gap repair. Primers for all cloning reactions are listed herein. Proteins expressed in pYES260 have an N-terminal 6×-histidine tag followed by a TEV protease cleavage site. Proteins expressed in pGREG536 have an N-terminal 7×-HA tag. Proteins expressed in the pRS316 vector are untagged. The pYES260, pRS316 and pGREG536 vectors allow for galactose-inducible expression via the GAL1 promoter. […] The FET3-lacZ plasmid was previously described (Kupchak et al., 2007). Plasmids derived from pADM4 carrying hyperactive alleles of Gpa1p (Gpa1p^Q323L) (Slessareva et al., 2006) and Gpa2p (Gpa2p^Q300L) (Harashima et al., 2002) driven by the ADH1 promoter were kindly provided by Dr. Henrik Dohlman (UNC Chapel Hill). A pRS316-based plasmid containing the STE2 gene under the control of the GAL1 promoter (Feng et al., 2000) was kindly provided by Dr. Nicholas G. Davis (Wayne State University).
(§1) Assays and growth conditions. Strains were maintained using standard protocol and grown in synthetic defined (SD) media with the appropriate amino acids to match the auxotrophies of the individual strains. Low Iron Medium (LIM) contains EDTA to limit iron-bioavailability and its composition has been previously described (Kupchak et al., 2007). […] In brief, overnights of cells grown in SD-glucose media were re-inoculated into iron-deficient LIM to induce the expression of FET3. 2% galactose was used as a carbon source to induce full expression of PAQR genes driven by the GAL1 promoter, while 0.05% galactose/1.95% raffinose was used for reduced PAQR expression. All ligands were added to the growth medium upon re-inoculation into LIM. For experiments in which steroids were added as ligands, steroids were added from ethanol stocks and “untreated” controls are actually treated with an equal volume of ethanol to control for vehicle effects. Cells were allowed to grow to mid-log phase at which time the activity of the FET3 gene was monitored using a FET3-lacZ promoter-reporter construct. lacZ activities are presented as a percentage of activity seen in untreated cells expressing the appropriate empty expression vector control. For individual experiments, each data point has been done in triplicate and the error bars represent +/−1 standard deviation. All experiments were performed at least three times and a representative experiment is shown. EC50 values were obtained using the web-based BioDataFit software using sigmoidal curve-fitting. (web site changbioscience.com/stat/ec50.html)

The subject of test [3] is FET3. In words: FET3-lacZ reporter in wild type yeast carrying empty expression plasmid. In kind it is cell-based, Saccharomyces cerevisiae. The following applies: no human PAQR.
Text: as §1

[4] abbreviates: read-out: EC50 for the activation of mPRα.

On to `CC#C[C@]1(O)CC[C@H]2[C@@H]3CCC4=CC(=O)CCC4=C3[C@@H](c3ccc(N(C)C)cc3)C[C@@]21C` [RU-486, Mifepristone], for which the EC50 in test [1] (EC50, mPRα, ligand alone) was 11 µM; in test [2] (mPRγ column of Table 4, ligand alone), 6.8 µM; in test [2] (mPRγ, weak agonist at high concentrations), over 5 µM. Also, the “agonist activity on mPRα (in words)” value in test [1] is on record as “weak agonist”. For the same compound, the “agonist activity on mPRγ (in words)” value in test [2] is reported as “weak agonist”. Moreover, in test [2] (exposure of cells to 100 nM RU-486), the “increase in the EC50 of progesterone for the activation of mPRγ” value worked out at 15 fold. Moreover, in test [2] (in the presence of 100 nM progesterone, effect disappears at higher concentrations), the “antagonism of mPRγ” value is “weakly antagonizes”. In test [3], the “effect of ligand on FET3 in cells carrying empty expression plasmid” value is “had no effect”.
`C[C@]12CCC(=O)C=C1CC[C@@H]1[C@@H]2CC[C@@]2(C)[C@H]1CC[C@]2(O)C(=O)CO` [17α,21-dihydroxyprogesterone]: in test [1], the “activation of mPRα, alterations at the 17 and 21 positions of the pregnane ring (in words)” value (from here on “activation of mPRα, alterations”) is “similarly effective activators”. Besides, the EC50 in test [1] (setting [4]) was about 0.01 µM.
On to `C[C@]12CC[C@H]3[C@@H](CCC4=CC(=O)CC[C@@]43C)[C@@H]1CC[C@@H]2O` [testosterone], for which, in test [1], the “agonist activity on mPRα (in words)” value was “no agonist activity”. Also, the “agonist activity on mPRγ (in words)” value in test [2] is listed as “no agonist activity”. For the same compound, in test [2] (in the presence of 10 μM of the named steroid), the “increase of the EC50 of progesterone for mPRγ” value turned out to be 10 fold.
Take `C[C@]12CCC(=O)C=C1CC[C@@H]1[C@@H]2[C@@H](O)C[C@@]2(C)[C@H]1CC[C@]2(O)C(=O)CO` [11β,17α,21-trihydroxyprogesterone]: in test [1], the “activation of mPRα, alterations” value is “ineffective agonist”.
As to `C[C@]12CC[C@H]3[C@@H](CCC4=CC(=O)CC[C@@]43C)[C@@H]1CC[C@@H]2C(=O)CO` [21-hydroxyprogesterone], in test [1], the “activation of mPRα, alterations” value is listed as “similarly effective activators”. Also, the EC50 in test [1] (setting [4]) was about 0.01 µM.
